# According to ChEMBL document CHEMBL1201862, “PubChem BioAssay data set” (2004):
#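 Step 1: Grow cells in 96-well plates. Step 2: Expose to compound for 48 hours at 5 concentrations. Step 3: Interpolate endpoints linearly; if unreached, use highest concentration. Here, GI50 denotes the concentration required for 50% inhibition of growth.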 The source made the active and inactive calls. No stated cut-off is given here; in the data, active = GI50 up to about 1.1 µM and inactive = higher.
# Key:
# Test in all cases: NCI tumour cell line growth inhibition, 48 h
# TK-10 = test system: TK-10
# NCI-H460 = test system: NCI-H460
# OVCAR-8 = test system: OVCAR-8
# SF-268 = test system: SF-268
# HCC 2998 = test system: HCC 2998
# KM12 = test system: KM12
# COLO 205 = test system: COLO 205
# EKVX = test system: EKVX
# SK-MEL-28 = test system: SK-MEL-28
# MCF7 = test system: MCF7
# OVCAR-4 = test system: OVCAR-4
# SW-620 = test system: SW-620
# SF-539 = test system: SF-539
# UO-31 = test system: UO-31
# 786-0 = test system: 786-0
# NCI-H226 = test system: NCI-H226
# SK-OV-3 = test system: SK-OV-3
# SNB-75 = test system: SNB-75
# SNB-19 = test system: SNB-19
# LOX IMVI = test system: LOX IMVI
# MOLT-4 = test system: MOLT-4
# SK-MEL-2 = test system: SK-MEL-2
# NCI-H522 = test system: NCI-H522
# RPMI-8226 = test system: RPMI-8226
# BT-549 = test system: BT-549
# PC-3 = test system: PC-3
# K562 = test system: K562
# OVCAR-5 = test system: OVCAR-5
# Hs-578T = test system: Hs-578T
# SK-MEL-5 = test system: SK-MEL-5
# HCT-116 = test system: HCT-116
# MDA-N = test system: MDA-N
# IGROV-1 = test system: IGROV-1
# HOP-92 = test system: HOP-92
# A498 = test system: A498
# MDA-MB-435 = test system: MDA-MB-435
# OVCAR-3 = test system: OVCAR-3
# CCRF-CEM = test system: CCRF-CEM
# SF-295 = test system: SF-295
# DU-145 = test system: DU-145
# CAKI-1 = test system: CAKI-1
# HT-29 = test system: HT-29
# SR = test system: SR
# UACC-257 = test system: UACC-257
# SN12C = test system: SN12C
# ACHN = test system: ACHN
# A549 = test system: A549
# UACC-62 = test system: UACC-62
# T47D = test system: T47D
# HL-60 = test system: HL-60
# U-251 = test system: U-251
# MDA-MB-231 = test system: MDA-MB-231
# NCI/ADR-RES = test system: NCI/ADR-RES
# M14 = test system: M14
# HCT-15 = test system: HCT-15
# NCI-H23 = test system: NCI-H23
# Malme-3M = test system: Malme-3M
# HOP-62 = test system: HOP-62
# RXF 393 = test system: RXF 393
smiles,measurement,setting,value
COc1cc2c(c(OC3OC(CO)C(O)C(O)C3O)c1)C(=O)CC(c1ccc(O)cc1)O2 (stereo unspecified),GI50,TK-10,> 100 µM (inactive)
same,GI50,NCI-H460,> 100 µM (inactive)
same,GI50,OVCAR-8,> 100 µM (inactive)
same,GI50,SF-268,> 100 µM (inactive)
same,GI50,HCC 2998,> 100 µM (inactive)
same,GI50,KM12,> 100 µM (inactive)
same,GI50,COLO 205,> 100 µM (inactive)
same,GI50,EKVX,> 100 µM (inactive)
same,GI50,SK-MEL-28,> 100 µM (inactive)
same,GI50,MCF7,> 100 µM (inactive)
same,GI50,OVCAR-4,> 100 µM (inactive)
same,GI50,SW-620,> 100 µM (inactive)
same,GI50,SF-539,> 100 µM (inactive)
same,GI50,UO-31,> 100 µM (inactive)
same,GI50,786-0,> 100 µM (inactive)
same,GI50,NCI-H226,> 100 µM (inactive)
same,GI50,SK-OV-3,> 100 µM (inactive)
same,GI50,SNB-75,> 100 µM (inactive)
same,GI50,SNB-19,> 100 µM (inactive)
same,GI50,LOX IMVI,> 100 µM (inactive)
same,GI50,MOLT-4,> 100 µM (inactive)
same,GI50,SK-MEL-2,> 100 µM (inactive)
same,GI50,NCI-H522,> 100 µM (inactive)
same,GI50,RPMI-8226,> 100 µM (inactive)
same,GI50,BT-549,> 100 µM (inactive)
same,GI50,PC-3,> 100 µM (inactive)
same,GI50,K562,> 100 µM (inactive)
same,GI50,OVCAR-5,> 100 µM (inactive)
same,GI50,Hs-578T,> 100 µM (inactive)
same,GI50,SK-MEL-5,> 100 µM (inactive)
same,GI50,HCT-116,> 100 µM (inactive)
same,GI50,MDA-N,> 100 µM (inactive)
same,GI50,IGROV-1,> 100 µM (inactive)
same,GI50,HOP-92,> 100 µM (inactive)
same,GI50,A498,> 100 µM (inactive)
same,GI50,MDA-MB-435,> 100 µM (inactive)
same,GI50,OVCAR-3,> 100 µM (inactive)
same,GI50,CCRF-CEM,> 10 µM (inactive)
same,GI50,SF-295,> 100 µM (inactive)
same,GI50,DU-145,> 100 µM (inactive)
same,GI50,CAKI-1,> 100 µM (inactive)
same,GI50,HT-29,> 100 µM (inactive)
same,GI50,SR,> 100 µM (inactive)
same,GI50,UACC-257,> 100 µM (inactive)
same,GI50,SN12C,> 100 µM (inactive)
same,GI50,ACHN,> 100 µM (inactive)
same,GI50,A549,> 100 µM (inactive)
same,GI50,UACC-62,> 100 µM (inactive)
same,GI50,T47D,> 100 µM (inactive)
same,GI50,HL-60,> 100 µM (inactive)
same,GI50,U-251,> 100 µM (inactive)
same,GI50,MDA-MB-231,> 100 µM (inactive)
same,GI50,NCI/ADR-RES,> 100 µM (inactive)
same,GI50,M14,> 100 µM (inactive)
same,GI50,HCT-15,> 100 µM
same,GI50,NCI-H23,> 100 µM (inactive)
COC(=O)CCc1cc(OC)c2oc(-c3ccc(OC)c(OC)c3)c(CO)c2c1,GI50,TK-10,> 100 µM (inactive)
same,GI50,NCI-H460,> 100 µM (inactive)
same,GI50,Malme-3M,> 100 µM (inactive)
same,GI50,OVCAR-8,> 100 µM (inactive)
same,GI50,SF-268,> 100 µM (inactive)
same,GI50,HCC 2998,1.7 µM (inactive)
same,GI50,KM12,> 100 µM (inactive)
same,GI50,COLO 205,> 100 µM (inactive)
same,GI50,EKVX,> 100 µM (inactive)
same,GI50,SK-MEL-28,> 100 µM (inactive)
same,GI50,MCF7,> 100 µM (inactive)
same,GI50,OVCAR-4,> 100 µM (inactive)
same,GI50,SW-620,> 100 µM (inactive)
same,GI50,SF-539,> 100 µM (inactive)
same,GI50,UO-31,> 100 µM (inactive)
same,GI50,786-0,> 100 µM (inactive)
same,GI50,NCI-H226,> 100 µM (inactive)
same,GI50,SK-OV-3,> 100 µM (inactive)
same,GI50,SNB-19,> 100 µM (inactive)
same,GI50,LOX IMVI,> 100 µM (inactive)
same,GI50,MOLT-4,95.5 µM (inactive)
same,GI50,SK-MEL-2,65 µM (inactive)
same,GI50,NCI-H522,> 100 µM (inactive)
same,GI50,RPMI-8226,99.5 µM (inactive)
same,GI50,BT-549,> 100 µM (inactive)
same,GI50,PC-3,> 100 µM (inactive)
same,GI50,K562,> 100 µM (inactive)
same,GI50,OVCAR-5,> 100 µM (inactive)
same,GI50,Hs-578T,> 100 µM (inactive)
same,GI50,SK-MEL-5,> 100 µM (inactive)
same,GI50,HCT-116,> 100 µM (inactive)
same,GI50,MDA-N,> 100 µM (inactive)
same,GI50,IGROV-1,> 100 µM (inactive)
same,GI50,HOP-92,> 100 µM (inactive)
same,GI50,A498,> 100 µM (inactive)
same,GI50,MDA-MB-435,> 100 µM (inactive)
same,GI50,OVCAR-3,> 100 µM (inactive)
same,GI50,CCRF-CEM,> 100 µM (inactive)
same,GI50,SF-295,> 100 µM (inactive)
same,GI50,DU-145,> 100 µM (inactive)
same,GI50,CAKI-1,> 100 µM (inactive)
same,GI50,HT-29,> 100 µM (inactive)
same,GI50,SR,56 µM (inactive)
same,GI50,UACC-257,> 100 µM (inactive)
same,GI50,SN12C,> 100 µM (inactive)
same,GI50,ACHN,> 100 µM (inactive)
same,GI50,A549,> 100 µM (inactive)
same,GI50,UACC-62,> 100 µM (inactive)
same,GI50,T47D,86.7 µM (inactive)
same,GI50,HL-60,> 100 µM (inactive)
same,GI50,U-251,> 100 µM (inactive)
same,GI50,MDA-MB-231,> 100 µM (inactive)
same,GI50,NCI/ADR-RES,> 100 µM (inactive)
same,GI50,M14,> 100 µM (inactive)
same,GI50,HCT-15,> 100 µM
same,GI50,HOP-62,> 100 µM (inactive)
same,GI50,NCI-H23,> 100 µM (inactive)
C=CCn1c(-c2ccc(-c3cs/c(=N\N=O)n3CC=C)cc2)cs/c1=N\N=O,GI50,TK-10,> 100 µM (inactive)
same,GI50,NCI-H460,> 100 µM (inactive)
same,GI50,Malme-3M,> 100 µM (inactive)
same,GI50,OVCAR-8,88.1 µM (inactive)
same,GI50,SF-268,> 100 µM (inactive)
same,GI50,HCC 2998,> 100 µM (inactive)
same,GI50,KM12,> 100 µM (inactive)
same,GI50,COLO 205,> 100 µM (inactive)
same,GI50,EKVX,> 100 µM (inactive)
same,GI50,SK-MEL-28,> 100 µM (inactive)
same,GI50,MCF7,> 100 µM (inactive)
same,GI50,OVCAR-4,22.2 µM (inactive)
same,GI50,SW-620,> 100 µM (inactive)
same,GI50,SF-539,94.4 µM (inactive)
same,GI50,UO-31,> 100 µM (inactive)
same,GI50,786-0,62.5 µM (inactive)
same,GI50,NCI-H226,> 100 µM (inactive)
same,GI50,SK-OV-3,40.7 µM (inactive)
same,GI50,SNB-75,20.9 µM (inactive)
same,GI50,SNB-19,> 100 µM (inactive)
same,GI50,LOX IMVI,> 100 µM (inactive)
same,GI50,MOLT-4,> 100 µM (inactive)
same,GI50,SK-MEL-2,> 100 µM (inactive)
same,GI50,NCI-H522,83.2 µM (inactive)
same,GI50,BT-549,> 100 µM (inactive)
same,GI50,PC-3,> 100 µM (inactive)
same,GI50,K562,> 100 µM (inactive)
same,GI50,OVCAR-5,> 100 µM (inactive)
same,GI50,Hs-578T,45.9 µM (inactive)
same,GI50,SK-MEL-5,> 100 µM (inactive)
same,GI50,HCT-116,79.1 µM (inactive)
same,GI50,MDA-N,> 100 µM (inactive)
same,GI50,IGROV-1,> 100 µM (inactive)
same,GI50,HOP-92,> 100 µM (inactive)
same,GI50,A498,> 100 µM (inactive)
same,GI50,MDA-MB-435,> 100 µM (inactive)
same,GI50,OVCAR-3,> 100 µM (inactive)
same,GI50,CCRF-CEM,> 100 µM (inactive)
same,GI50,SF-295,91 µM (inactive)
same,GI50,DU-145,> 100 µM (inactive)
same,GI50,CAKI-1,> 100 µM (inactive)
same,GI50,HT-29,> 100 µM (inactive)
same,GI50,SR,> 100 µM (inactive)
same,GI50,UACC-257,> 100 µM (inactive)
same,GI50,SN12C,86.9 µM (inactive)
same,GI50,RXF 393,19.1 µM (inactive)
same,GI50,ACHN,> 100 µM (inactive)
same,GI50,A549,> 100 µM (inactive)
same,GI50,UACC-62,> 100 µM (inactive)
same,GI50,T47D,> 100 µM (inactive)
same,GI50,HL-60,> 100 µM (inactive)
same,GI50,U-251,61.1 µM (inactive)
same,GI50,MDA-MB-231,23.4 µM (inactive)
same,GI50,NCI/ADR-RES,> 100 µM (inactive)
same,GI50,M14,> 100 µM (inactive)
same,GI50,HCT-15,> 100 µM
same,GI50,HOP-62,64.3 µM (inactive)
same,GI50,NCI-H23,> 100 µM (inactive)
